# According to patent publication US20250101062A1, “ANTIMICROBIAL PEPTIDES” (Board of Regents of the University of Nebraska, priority 2023, published 2025):
# Where two headings read alike, the source gives them in different places. Where no end group is shown, it is not given here.
# Assays:
# Format in all cases: cell-based, Staphylococcus aureus
# [1] = tested on: S. aureus USA300 LAC; experiment: microbe, parasite or virus in culture
# In short: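 Broth microdilution with twofold peptide dilutions, using exponential-phase bacteria at about 10^5 CFU/mL in MHB, incubated overnight at 37 °C and read at OD600. MIC, reported as a range, is the peptide concentration with no growth. Some tests used diluted MHB/TSB/LB, adjusted pH, or added NaCl or human serum.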
# [2] = tested on: MRSA USA300; experiment: Killing kinetics; details: 2×MIC
# Method: MRSA USA300 was grown to the exponential phase (OD600˜0.3) in MHB. The culture was diluted to OD600 0.001 (˜10^5 CFU/mL). One milliliter of bacterial suspension was then mixed with LL-37mini or daptomycin at 2×MIC and incubated at 37° C. After 15, 30, 60, 90, and 120 minutes of incubation, 50 μL was taken and serially diluted with 1×PBS. Then, 50 μL of the diluted suspension was plated on mannitol salt agar plates (NEOGEN, MI). The plates were incubated overnight at 37° C. for bacterial CFU determination the next day.
# For bacterial killing kinetics study, MRSA USA300 and P. aeruginosa E411-17 was grown to the exponential phase (OD600˜0.3) in MHB. The culture was diluted to OD600 0.001 (˜10^5 CFU/mL). One milliliter of bacterial suspension was then mixed with the peptide, colistin or daptomycin at 4×MIC and incubated at 37° C. After 15, 30, 60, 90, and 120 minutes incubation, 50 μL was taken and serially diluted with 1×PBS. Then, 50 μL of the diluted suspension was plated on Mannitol Salt Agar (MRSA USA300) or Cetrimide Agar (P. aeruginosa E411-17) plates (NEOGEN, MI). The plates were incubated overnight at 37° C. for bacterial CFU count the next day.
# [3] = tested on: MRSA USA300; experiment: Membrane permeabilization (propidium iodide)
# Method: The peptide ladder was prepared as described for the antibacterial assay with 10 μL of solution in a black COSTAR® 96-well plate. PI (MP Biomedicals, Solon, OH) was prepared in the dark and dissolved in dimethylsulfoxide (Thermo Fisher Scientific, NY) to 20 mM. This PI stock solution was further diluted to 1 mM with water, and 2 μL of 1 mM PI was added to each well. Exponential-phase MRSA USA300 was diluted to OD600 0.11 with TSB, and 88 μL was added to each well. The plate was incubated at 37° C. with continuous shaking in a FLUOstar® Omega (BMG LABTECH, NC) microplate reader. The sample was read every 5 minutes for 24 cycles with excitation and emission wavelengths of 584 and 620 nm, respectively.
# Bacterial membrane permeation was conducted (Yeaman, et al. (1998) J. Clin. Invest., 101(1):178-87). In brief, the peptide ladder was prepared as described for the antibacterial assay with 10 μL in a black COSTAR 96-well plate. Propidium iodide (PI) (MP Biomedicals, Solon, OH) was prepared in the dark and dissolved in DMSO (Thermo Fisher Scientific, NY) to 20 mM. This PI stock solution was further diluted to 1 mM with water and 2 μL of 1 mM PI was added to each well. Exponential phase MRSA USA300 or P. aeruginosa E411-17 was diluted to OD600 0.11 with tryptic soy broth (TSB) and 88 μL was added to each well. The plate was incubated at 37° C. with continuous shaking in a FLUOstar® Omega (BMG LABTECH, NC) microplate reader. The sample was read every 5 minutes for 24 cycles with excitation and emission wavelengths at 584 nm and 620 nm, respectively.
compound,measurement,setting,value
CCCCCCCCCC(=O)N[C@@H](Cc1c[nH]c2ccccc12)C(=O)N[C@H](CC(N)=O)C(=O)N[C@@H](CC(=O)O)C(=O)N[C@@H]1C(=O)NCC(=O)N[C@@H](CCCN)C(=O)N[C@@H](CC(=O)O)C(=O)N[C@H](C)C(=O)N[C@@H](CC(=O)O)C(=O)NCC(=O)N[C@H](CO)C(=O)N[C@@H]([C@H](C)CC(=O)O)C(=O)N[C@@H](CC(=O)c2ccccc2N)C(=O)O[C@@H]1C [Daptomycin],MIC,"[1]; Staphylococcus aureus, MRSA / USA300, MRSA in MHB, 10% serum, read-out: Antimicrobial activity (MIC)",1 µM
same,MIC,"[1]; Staphylococcus aureus, MRSA / USA300, MRSA in MHB, 20% serum, read-out: Antimicrobial activity (MIC)",1 µM
same,MIC,"[1]; Staphylococcus aureus, MRSA / USA300, MRSA in MHB, NaCl (150 mM), read-out: Antimicrobial activity (MIC)",1 µM
same,MIC,"[1]; Staphylococcus aureus, MRSA / USA300, pH 6.3, MRSA in MHB, pH 6.3, read-out: Antimicrobial activity (MIC)",1 µM
same,MIC,"[1]; Staphylococcus aureus, MRSA / USA300, pH 7.2, MRSA in MHB, pH 7.2, read-out: Antimicrobial activity (MIC)",1 µM
same,MIC,"[1]; Staphylococcus aureus, USA300, Human serum 5%, read-out: Antimicrobial activity (MIC)",0.5 to 1 µM
same,MIC,"[1]; Staphylococcus aureus, USA300, Human serum 10%, read-out: Antimicrobial activity (MIC)",0.5 to 1 µM
same,MIC,"[1]; Staphylococcus aureus, USA300, MHB, Table 8, read-out: Antimicrobial activity (MIC) S. aureus USA300",0.5 to 1 µM
same,MIC,"[1]; Staphylococcus aureus, USA300, NaCl (150 mM), read-out: Antimicrobial activity (MIC)",0.5 µM
same,MIC,"[1]; Staphylococcus aureus, USA300, pH 6.21, pH 6.21, read-out: Antimicrobial activity (MIC)",0.5 to 1 µM
same,MIC,"[1]; Staphylococcus aureus, USA300, pH 7.22, pH 7.22, read-out: Antimicrobial activity (MIC)",0.5 µM
same,MIC,"[1]; Staphylococcus aureus, USA300, pH 8.13, pH 8.13, read-out: Antimicrobial activity (MIC)",0.5 µM
same,time to kill,[2],2 h
same,membrane permeabilization,"[3]; Example 1, 1×MIC",membrane permeabilization after a delay
CC[C@H](C)[C@H](NC(=O)[C@H](CCCCN)NC(=O)[C@H](CCC(=O)O)NC(=O)[C@H](CCCCN)NC(=O)[C@H](CO)NC(=O)[C@H](CCCCN)NC(=O)[C@H](CCCNC(=N)N)NC(=O)[C@H](Cc1ccccc1)NC(=O)[C@H](Cc1ccccc1)NC(=O)[C@H](CC(=O)O)NC(=O)CNC(=O)[C@H](CC(C)C)NC(=O)[C@@H](N)CC(C)C)C(=O)NCC(=O)N[C@@H](CCCCN)C(=O)N[C@@H](CCC(=O)O)C(=O)N[C@@H](Cc1ccccc1)C(=O)N[C@@H](CCCCN)C(=O)N[C@@H](CCCNC(=N)N)C(=O)N[C@H](C(=O)N[C@H](C(=O)N[C@@H](CCC(N)=O)C(=O)N[C@@H](CCCNC(=N)N)C(=O)N[C@H](C(=O)N[C@@H](CCCCN)C(=O)N[C@@H](CC(=O)O)C(=O)N[C@@H](Cc1ccccc1)C(=O)N[C@@H](CC(C)C)C(=O)N[C@@H](CCCNC(=N)N)C(=O)N[C@@H](CC(N)=O)C(=O)N[C@@H](CC(C)C)C(=O)N[C@H](C(=O)N1CCC[C@H]1C(=O)N[C@@H](CCCNC(=N)N)C(=O)N[C@H](C(=O)N[C@@H](CCC(=O)O)C(=O)N[C@@H](CO)C(=O)O)[C@@H](C)O)C(C)C)[C@@H](C)CC)C(C)C)[C@@H](C)CC [LL-37],MIC,"[1]; DMEM, read-out: Antimicrobial activity (MIC)",≤4 µM
same,MIC,"[1]; Human serum 5%, read-out: Antimicrobial activity (MIC)",>32 µM
same,MIC,"[1]; Human serum 10%, read-out: Antimicrobial activity (MIC)",>32 µM
same,Antimicrobial activity (MIC),[1]; LB 12.5%,>32 µM
same,Antimicrobial activity (MIC),[1]; LB 25%,>32 µM
same,Antimicrobial activity (MIC),[1]; LB 50%,>32 µM
same,Antimicrobial activity (MIC),[1]; LB 100%,>32 µM
same,Antimicrobial activity (MIC),[1]; MHB 50%,32 µM
same,Antimicrobial activity (MIC),[1]; MHB 100%,did not display any activity
same,MIC,"[1]; MHB, Table 8, read-out: Antimicrobial activity (MIC) S. aureus USA300",>32 µM
same,MIC,"[1]; NaCl (150 mM), read-out: Antimicrobial activity (MIC)",>32 µM
same,MIC,"[1]; RPMI 1640, read-out: Antimicrobial activity (MIC)",≤4 µM
same,Antimicrobial activity (MIC),[1]; TSB 12.5%,>32 µM
same,Antimicrobial activity (MIC),[1]; TSB 25%,>32 µM
same,Antimicrobial activity (MIC),[1]; TSB 50%,>32 µM
same,Antimicrobial activity (MIC),[1]; TSB 100%,>32 µM
same,MIC,"[1]; pH 6.21, read-out: Antimicrobial activity (MIC)",>32 µM
same,MIC,"[1]; pH 7.22, read-out: Antimicrobial activity (MIC)",>32 µM
same,membrane permeabilization,"[3]; Example 2, TSB, 1-32 μM",failed to do so
RRWWRWWR-NH2 [W543],change of MIC / activity,"[1]; MRSA in MHB, 10% human serum",eightfold
same,effect on MIC,"[1]; MRSA in MHB, addition of 150 mM NaCl",did not alter the MIC
same,increase of MIC,"[1]; MRSA in MHB, decrease of pH from 7.2 to 6.3",twofold
same,Activity (MIC) S. aureus,[1]; USA300,4 to 8 µM
same,Antimicrobial activity (MIC),[1]; USA300,64 µM
same,Antimicrobial activity (MIC),"[1]; USA300, pH 6.3",16 µM
same,concentration with no growth,[1]; without protease,8 µM
same,time at which CFU was not detected (killing),[2],120 min
same,membrane permeabilization,"[3]; Example 1, 1×MIC",clear fluorescence increase
